Measurements taken from paper PMC8151848, “Tambjamines and Prodiginines: Biocidal Activity against Trypanosoma cruzi” (Pharmaceutics, 2021).
Entries after “also recorded” stand apart in the source; their conditions may differ. Read-outs that look alike come from different tables or passages of the source.

Key:
[1] = tested on: murine L-929 fibroblasts (NCTC clone 929); assay: Cytotoxicity assay (resazurin) in L-929 fibroblasts; format: cell-based, mouse
Text: (§1) Mouse L-929 fibroblasts (NCTC clone 929, ECACC 88102702) were used for both drug toxicity and infection assays. Cell line was obtained from Dr. Concepció Soler, Dept. Pathology & Experimental therapeutics, Faculty of Medicine and Health Sciences, University of Barcelona, Spain. Human hepatocarcinoma Hep G2 cells (American Type Culture Collection (ATCC HB-8065)) were employed only in the drug toxicity assays and were obtained from Dr. Neus Agell, Cell Biology Research Group, Faculty of Medicine and Health Sciences, University of Barcelona, Spain.
(§2) Cells were seeded by trypsinization in 96-well microplates (L-929: 4 × 10^3 cells/well; Hep G2: 1.5 × 10^4 cells/well) and incubated for 24 h at 37 °C to allow cell attachment. On the following day, the medium was discarded and replaced with a fresh medium containing the different concentrations of the drugs. Hep G2 cells were treated with concentrations of 100, 10, and 1 µM of the different drugs, while L-929 cells were treated with a wider range of concentrations in order to calculate the IC50 value (the drug concentration that inhibits 50% of cell growth). Medium, growth, and drug blanks were used in each test as controls. Plates were incubated again for another 24 h. After treatment, 20 µL of resazurin diluted in 1X phosphate-buffered saline (PBS; Sigma Aldrich) was added at a final concentration of 70 µM. The plates were incubated for another 24 h, after which fluorescence was measured in a microplate reader (FLUOstar OPTIMA, BMG LABTECH GmbH, Ortenberg, Germany) at an excitation wavelength of 530 nm and an emission wavelength of 590 nm. Each concentration was tested in triplicate and the experiments were repeated three times independently. Results indicated the percentage of toxicity (% T value). (3) % Toxicity=100−(AE−AEB)/(AC−ACB)×100 where AE is the absorbance of the experimental group, AEB the absorbance of the drug blank, AC the absorbance of the untreated cells, and ACB the absorbance of the culture medium blank. For the L-929 fibroblasts, the IC50 values (the drug concentration that inhibits 50% of cell growth) were calculated for each compound using the GraphPad Prism software.

[2] = tested on: epimastigotes of T. cruzi (CL strain, clone B5); assay: Epimastigote susceptibility assay (monotherapy); format: cell-based, Trypanosoma cruzi
Protocol: The CL-B5 strain was stably transfected with the Escherichia coli β-galactosidase gene (lacZ) and routinely maintained in exponential growth by weekly passages. Trypomastigotes of the CL-B5 strain were obtained as previously reported.
The screening assays were performed in 96-well microplates (WWR Int LLC) containing serially diluted concentrations of each compound and seeded with 2.5 × 10^5 epimastigotes/mL harvested during the exponential growth phase. Growth, medium, and drug blanks were used in each assay as controls. An internal control of the reference drug, benznidazole, was also included. After 72 h at 28 °C, 50 µL of the substrate chlorophenol red-β-D-galactopyranoside (CPRG; Roche) diluted in 0.9% Triton X-100 solution (EMD, Darmstadt, Germany) were added at a final concentration of 200 µM. Then, after 3 h at 37 °C, measurements were performed in a scanning multiwell spectrophotometer (ELISA Multiskan Reader, BioTek Instruments, Inc., Winooski, VT, USA) at 595 nm. Each concentration was tested in triplicate and the experiments were performed three times independently. The efficacy of the compounds was calculated by determining the percentage of epimastigote growth (% EG value) as follows:(1) % Epimastigote growth=(AE−AEB)/(AC−ACB)×100 where AE is the absorbance of the experimental group, AEB the absorbance of the drug blank, AC the absorbance of the control group, and ACB the absorbance of the culture medium blank. The IC50 values (the drug concentration that eliminates 50% of the parasites) were determined for each compound using the GraphPad Prism software (Version 5.0.0 for Windows, GraphPad Software, San Diego, CA, USA).

[3] = tested on: human hepatocarcinoma cells (Hep G2); assay: Cytotoxicity assay (resazurin) in Hep G2 cells; format: cell-based; conditions: for Cytotoxicity (% cell growth inhibition) at 1 µM ± SD: Hep G2, 1 µM
Text: as §1
as §2, with “Hep G2 cells were treated with concentrations of 100, 10, and 1 µM of the different drugs, while L-929 cells were treated with a wider range of concentrations in order to calculate the IC50 value (the drug concentration that inhibits 50% of cell growth).” left out, “For the L-929 fibroblasts, the IC50 values (the drug concentration that inhibits 50% of cell growth) were calculated for each compound using the GraphPad Prism software.” left out

[4] = tested on: intact epimastigotes of T. cruzi; assay: Oxygen consumption inhibition analysis (high-resolution respirometry); format: cell-based, Trypanosoma cruzi; conditions: for % Oxygen Uptake Inhibition (¾ IC50): compound at ¾ IC50; for effect on respiratory inhibition (in words): ½ and ¾ IC50
Protocol: Intact epimastigotes were collected by centrifugation, washed twice in PBS, and resuspended with respiration buffer containing 125 mM sucrose, 65 mM KCL, 10 mM Tris-HCl (pH 7.2), 1 mM […], and 2.5 mM K2PO4. They were then added to a final concentration of 25 × 10^6 cells/mL.
To evaluate the effect of the different drugs on mitochondrial function, we measured mitochondrial respiration in the cells before and after the addition of increasing volumes of the compounds. Each compound was added in titrations until reaching concentrations of ½ and ¾ IC50. Finally, antimycin A (AA) was added to determine the residual oxygen consumption (ROX) through the inhibition of complex III of the electron transport chain. The ROX value was subtracted from the O2 flux as a baseline for all the respiratory states.
Mitochondrial respiration was measured by high-resolution respirometry (OROBOROS Oxygraph-2k; OROBOROS Instruments, Innsbruck, Austria). Data were analyzed by using the Software DatLab Online Data Acquisition and Analysis (OROBOROS Instruments, Innsbruck, Austria). All respirometry assays were performed at a constant temperature of 28 °C, with the volume of each chamber being 2 mL. The oxygen flux values are expressed relative to the cell concentration per second (pmol/sec/10^6 cells). The effect of each compound on mitochondrial function is shown as the percentage of inhibition of oxygen flux.

[5] = Mus musculus, L929, read-out: IC50 (µM) L-929 cell growth inhibition
[6] = IC50 for L-929 fibroblasts / IC50 for T. cruzi epimastigotes
[7] = Trypanosoma cruzi, CLB strain, 72 h at 28 °C, mean ± SD, read-out: IC50 (µM) in epimastigotes of T. cruzi
[8] = Homo sapiens, HepG2, read-out: IC50 (µM) Hep G2 cell growth inhibition

O=C(Cn1ccnc1[N+](=O)[O-])NCc1ccccc1 [Benznidazole, reference compound]
IC50 [1, 5]: 1372.3 ± 0.5 µM
Selectivity index (SI), Epimastigotes [2, 6]: 72.37
IC50 [2, 7]: 19 ± 7.07 µM
IC50 [3, 8]: > 100 µM

CCCCCC1=C/C(=C/c2[nH]c(-c3ccc[nH]3)cc2OC)N=C1C [Natural prodigiosin, prodigiosin]
IC50 ([1]; Mus musculus, L929, read-out: IC50 (µM) L-929 cell growth inhibition, L-929): 5 ± 0.83 µM
% Oxygen Uptake Inhibition (½ IC50) ([4]; compound at ½ IC50): 72.8%
% Oxygen Uptake Inhibition (½ IC50) ([4]; compound at ½ IC50, listed as natural prodigiosin): 73%
Oxygen Uptake (pmol/sec/Million Cells) ([4]; compound at ½ IC50, n = 4): 0.73 ± 0.06 pmol/sec/Million Cells
Selectivity index (SI), Epimastigotes [2, 6]: 9.25
IC50 ([2]; read-out: IC50 (µM) in epimastigotes of T. cruzi, CLB strain, 72 h at 28 °C, mean ± SD): 0.54 ± 0.25 µM
Cytotoxicity (% cell growth inhibition) at 1 µM ± SD ([3]; n = 9): 2.29 ± 3.97%
Cytotoxicity (% cell growth inhibition) at 10 µM ± SD ([3]; Hep G2, 10 µM, n = 9, 10 µM): 87.97 ± 5.94%
IC50 ([3]; read-out: IC50 (µM) Hep G2 cell growth inhibition, Hep G2): 6.02 ± 0.5 µM

CCCCCC1=C/C(=C/c2[nH]c(-c3ccc[nH]3)cc2OC)N=C1C [Synthetic prodigiosin, prodigiosin]
% Cytotoxicity ± SD ([1]; L-929, 16 µM, n = 9, 16 µM): 95.75 ± 0.06%
IC50 ([1]; read-out: IC50 (µM) L-929 cell growth inhibition, L-929): 3.06 ± 0.01 µM
% Oxygen Uptake Inhibition (½ IC50) ([4]; compound at ½ IC50): 13.58%
Oxygen Uptake (pmol/sec/Million Cells) ([4]; compound at ½ IC50, n = 4): 2.33 ± 0.09 pmol/sec/Million Cells
% Oxygen Uptake Inhibition (¾ IC50) [4]: 35.18%
Oxygen Uptake (pmol/sec/Million Cells) ([4]; compound at ¾ IC50, n = 4): 1.74 ± 0.17 pmol/sec/Million Cells
Selectivity index (SI), Epimastigotes [2, 6]: 6.65
IC50 ([2]; Trypanosoma cruzi, 72 h, read-out: IC50 (µM) in epimastigotes of T. cruzi, CLB strain, 72 h at 28 °C, mean ± SD): 0.46 ± 0.03 µM
Cytotoxicity (% cell growth inhibition) at 1 µM ± SD ([3]; n = 9): 15 ± 6.12%
IC50 ([3]; Homo sapiens, HepG2, read-out: IC50 (µM) Hep G2 cell growth inhibition, Hep G2): 5.15 ± 0.39 µM

CCc1c(-c2ccc[nH]2)[nH]c(/C=N/C2CCCCC2)c1C [MM3]
IC50 [1, 5]: 12.2 ± 0.28 µM
% Oxygen Uptake Inhibition (½ IC50) ([4]; compound at ½ IC50): 41.26%
Oxygen Uptake (pmol/sec/Million Cells) ([4]; compound at ½ IC50, n = 4): 1.58 ± 0.05 pmol/sec/Million Cells
% Oxygen Uptake Inhibition (¾ IC50) [4]: 42%
Oxygen Uptake (pmol/sec/Million Cells) ([4]; compound at ¾ IC50, n = 4): 1.56 ± 0.06 pmol/sec/Million Cells
Selectivity index (SI), Epimastigotes [2, 6]: 2.70
IC50 [2, 7]: 4.52 ± 1.43 µM
IC50 [3, 8]: 46 ± 8.15 µM

CCc1c(-c2ccc[nH]2)[nH]c(/C=N/c2ccc(C(C)(C)C)cc2)c1C [MM4]
IC50 [1, 5]: 14 ± 1.28 µM
% Oxygen Uptake Inhibition (½ IC50) ([4]; compound at ½ IC50): 2.60%
Oxygen Uptake (pmol/sec/Million Cells) ([4]; compound at ½ IC50, n = 4): 2.62 ± 0.04 pmol/sec/Million Cells
% Oxygen Uptake Inhibition (¾ IC50) [4]: 2.97%
Oxygen Uptake (pmol/sec/Million Cells) ([4]; compound at ¾ IC50, n = 4): 2.61 ± 0.04 pmol/sec/Million Cells
effect on respiratory inhibition (in words) [4]: little or no effect; also recorded: no inhibitory effect
Selectivity index (SI), Epimastigotes [2, 6]: 2.76
IC50 [2, 7]: 5.08 ± 0.62 µM
IC50 [3, 8]: 52.5 ± 9.21 µM

COC1=CC(c2cc3ccccc3[nH]2)=N/C1=C\c1[nH]c(C)cc1C [Obatoclax, reference compound]
IC50 [1, 5]: 5.83 ± 1.07 µM
% Oxygen Uptake Inhibition (½ IC50) ([4]; compound at ½ IC50): 0%
Oxygen Uptake (pmol/sec/Million Cells) ([4]; compound at ½ IC50, n = 4): 2.69 ± 0 pmol/sec/Million Cells
% Oxygen Uptake Inhibition (¾ IC50) [4]: 0%
Oxygen Uptake (pmol/sec/Million Cells) ([4]; compound at ¾ IC50, n = 4): 2.69 ± 0 pmol/sec/Million Cells
effect on respiratory inhibition (in words) [4]: little or no effect
Selectivity index (SI), Epimastigotes [2]: 1.68
IC50 [2, 7]: 3.46 ± 0.96 µM
IC50 [3, 8]: 8.18 ± 1.87 µM
